Measured values from US10358434B2, “2-(3-pyridinyl)-1H-benzimidazole derivative compound and medicament containing same” (NIHON MEDI-PHYSICS CO., LTD., priority 2014, dated 2019).

Tests used:
[1] = test system: human adrenal gland section expressing aldosterone-producing adenoma; experiment: In vitro autoradiography using human adrenal adenoma; format: binding
Source text: From adrenal gland excised from a human patient for treatment of primary aldosteronism, a portion containing aldosterone-producing adenoma was removed and was then frozen. The frozen adrenal gland was embedded in an embedding agent for production of a frozen tissue section (Tissue-Tek O.C.T. Compound, Sakura Finetek Japan). Using a freezing microtome (CM3050S, Leica Microsystems), a 7-μm thin slice section, which is schematically shown in FIGS. 17(a) and 17(b), was produced, and was preserved at −20° C. before use. In FIGS. 17, 71a and 71b indicate aldosterone-producing adenomas, 72a and 72b indicate normal adrenal cortexes, and 73a and 73b indicate normal adrenal medullas. A 5-33 kBq/mL solution was prepared by adding a suitable amount of each of Compounds [^18F] 100, [^18F] 200, [^123I] 400, [^18F] 500, and [^123I] 601 to [^123I] 610, which were obtained by the methods described in Examples 2, 4, 7, 9, 11, 13, 15, 17, 19, 21, 23, 25, 27, and 29, or [^123I] IMTO to a phosphate-buffered physiological saline containing 1 w/v % bovine serum albumin (not containing fatty acid). The radioactivity concentration was measured using an autowell gamma system (ARC-7001, manufactured by Hitachi Aloka Medical, Ltd.). The section was immersed in the obtained sample solution for 10 minutes. For Compounds [^18F] 100, [^18F] 200, [^123I] 400, [^18F] 500, [^123I] 601 and [^123I] 602, the section shown in FIG. 17(a) was used, and for Compounds […] [^123I] IMTO, both sections shown in FIGS. 17(a) and (b) were used. Each sample solution was washed off, and the section was then exposed to an imaging plate (BAS-SR2040, manufactured by FUJIFILM Holdings Corporation) (IP) for 16-20 hours, and thereafter, an autoradiogram was obtained using a fluoro-image analyzer (FLA-7000, manufactured by FUJIFILM Holdings Corporation).
In order to quantitatively compare differences between images caused by ^123I and ^18F nuclides, a correction was made by calculating accumulation of radioactivity within the range of a region of interest (ROI) by means of integral calculation based on half-life, added radioactivity and IP contact time.
610. FIG. 18(b), FIG. 19(b), FIG. 20(b), FIG. 21(b), FIG. 22(a), FIG. 23(a), FIG. 24(a), FIG. 25(a), FIG. 26(a), FIG. 27(a), FIG. 28(a), FIG. 29(a), FIG. 30(a), and FIG. 31(a) each show an autoradiogram of [^123I] IMTO. […] 100, [^18F] 200, [^123I] 400, [^18F] 500, and [^123I] 601 to [^123I] […] The ROI having the same area as each other was established in a normal site and in a site in which aldosterone-producing adenoma had developed. Then, the PSL value (B1) indicating accumulation of radioactivity in the sites of normal adrenal cortexes 72a and 72b was compared with the PSL value (B2) indicating accumulation of radioactivity in the sites of aldosterone-producing adenomas 71a and 71b. In Table 7, the B1, B2 and B2/B1 values of [^18F] 100 indicate the mean values for the number of tests (n), respectively.

[2] = In vivo kinetics experiment (radioactivity distribution); design: species or system Wistar male rat; conditions: rat i.v., mean ± SD
Protocol: Each of Compounds [^18F] 100, [^18F] 200, [^123I] 400, [^18F] 500, and [^123I] 601 to 610 obtained by the methods described in Examples 2, 4, 7, 9, 11, 13, 15, 17, 19, 21, 23, 25, 27, and 29, or [^123I] IMTO, was diluted with a physiological saline containing 1 w/v % ascorbic acid to prepare a solution to be administered. The above described compound (approximately 1 to 3.7 MBq) was injected into the caudal vein of a Wistar male rat (9 weeks old) under anesthesia with a mixed gas of isoflurane/air, and ten minutes after the injection, the rat was sacrificed by exsanguination. From the thus sacrificed rat, blood and organs (heart, lung, stomach, liver, spleen, small intestine, large intestine, kidney, bladder (including urine), muscle (lower limbs), brain, adrenal gland, testis, fat, femur, or thyroid gland) were excised, and the weights thereof were then measured. Thereafter, radioactivity was measured in the blood, the individual excised organs, and the remaining whole body. Further, 30 and 60 minutes after the administration, the same operations as those described above were carried out. […] The symbol “n” in Tables 9 to 23 indicates the number of rats used. In addition, Tables 9 to 23 also show the ratio of radioactivity accumulation in adrenal grand (% ID/g) to radioactivity accumulation in each of blood, liver, kidney, small intestine, muscle and fat (% ID/g).

## COC(=O)c1cncn1[C@H](C)c1ccc(I)cc1 [[^123I] IMTO, (R)-[^123I]iodometomidate, reference compound]
[1]; FIGS. 18 to 31
  accumulation of radioactivity in adrenal gland section (autoradiogram): accumulation of radioactivity was observed in the entire adrenal gland section
[1]; section of FIG. 17(a)
  B2/B1 accumulation ratio: 0.84
[1]; section of FIG. 17(a), site 71a
  B2 (PSL value, aldosterone-producing adenoma): 7863
[1]; section of FIG. 17(a), site 72a
  B1 (PSL value, normal adrenal cortex): 9415
[1]; section of FIG. 17(b)
  B2/B1 accumulation ratio: 0.79
[1]; section of FIG. 17(b), site 71b
  B2 (PSL value, aldosterone-producing adenoma): 6649
[1]; section of FIG. 17(b), site 72b
  B1 (PSL value, normal adrenal cortex): 8453
[2]; 10 min after administration
  Adrenal gland/blood ratio of radioactivity accumulation: 15.93 ± 4.94
  Adrenal gland/kidney ratio of radioactivity accumulation: 31.76 ± 10.16
  Adrenal gland/liver ratio of radioactivity accumulation: 6.72 ± 2.00
  Adrenal gland/muscle ratio of radioactivity accumulation: 126.18 ± 54.27
  Adrenal gland/small intestine ratio of radioactivity accumulation: 35.65 ± 9.43
  Radioactivity distribution Adrenal gland: 22.14 ± 6.98 % ID/g
  Radioactivity distribution Bladder (including urine): 0.25 ± 0.27 % ID/g
  Radioactivity distribution Blood: 1.40 ± 0.13 % ID/g
  Radioactivity distribution Heart: 0.48 ± 0.07 % ID/g
  Radioactivity distribution Kidney: 0.70 ± 0.01 % ID/g
  Radioactivity distribution Large intestine: 0.10 ± 0.02 % ID/g
  Radioactivity distribution Liver: 3.29 ± 0.08 % ID/g
  Radioactivity distribution Lung: 0.72 ± 0.05 % ID/g
  Radioactivity distribution Muscle (lower limbs): 0.18 ± 0.05 % ID/g
  Radioactivity distribution Remaining whole body: 0.29 ± 0.00 % ID/g
  Radioactivity distribution Small intestine: 0.62 ± 0.03 % ID/g
  Radioactivity distribution Spleen: 0.30 ± 0.02 % ID/g
  Radioactivity distribution Stomach: 0.52 ± 0.18 % ID/g
  Radioactivity distribution Testis: 0.52 ± 0.08 % ID/g
  Radioactivity distribution Thyroid gland: 1.30 ± 1.05 % ID/g
  Radioactivity distribution Whole brain: 0.30 ± 0.02 % ID/g
[2]; 30 min after administration
  Adrenal gland/blood ratio of radioactivity accumulation: 6.84 ± 2.49
  Adrenal gland/kidney ratio of radioactivity accumulation: 16.66 ± 8.95
  Adrenal gland/liver ratio of radioactivity accumulation: 9.74 ± 4.16
  Adrenal gland/muscle ratio of radioactivity accumulation: 97.10 ± 32.37
  Adrenal gland/small intestine ratio of radioactivity accumulation: 25.49 ± 8.31
  Radioactivity distribution Adrenal gland: 17.66 ± 7.43 % ID/g
  Radioactivity distribution Bladder (including urine): 0.39 ± 0.08 % ID/g
  Radioactivity distribution Blood: 2.55 ± 0.16 % ID/g
  Radioactivity distribution Heart: 0.74 ± 0.03 % ID/g
  Radioactivity distribution Kidney: 1.10 ± 0.12 % ID/g
  Radioactivity distribution Large intestine: 0.12 ± 0.01 % ID/g
  Radioactivity distribution Liver: 1.82 ± 0.04 % ID/g
  Radioactivity distribution Lung: 0.90 ± 0.09 % ID/g
  Radioactivity distribution Muscle (lower limbs): 0.18 ± 0.02 % ID/g
  Radioactivity distribution Remaining whole body: 0.31 ± 0.03 % ID/g
  Radioactivity distribution Small intestine: 0.68 ± 0.06 % ID/g
  Radioactivity distribution Spleen: 0.43 ± 0.04 % ID/g
  Radioactivity distribution Stomach: 0.46 ± 0.11 % ID/g
  Radioactivity distribution Testis: 0.32 ± 0.04 % ID/g
  Radioactivity distribution Thyroid gland: 0.81 ± 0.16 % ID/g
  Radioactivity distribution Whole brain: 0.18 ± 0.02 % ID/g
[2]; 60 min after administration
  Adrenal gland/blood ratio of radioactivity accumulation: 6.73 ± 2.57
  Adrenal gland/kidney ratio of radioactivity accumulation: 18.20 ± 8.58
  Adrenal gland/liver ratio of radioactivity accumulation: 14.20 ± 5.28
  Adrenal gland/muscle ratio of radioactivity accumulation: 120.14 ± 30.92
  Adrenal gland/small intestine ratio of radioactivity accumulation: 24.59 ± 8.26
  Radioactivity distribution Adrenal gland: 19.70 ± 8.14 % ID/g
  Radioactivity distribution Bladder (including urine): 0.68 ± 0.30 % ID/g
  Radioactivity distribution Blood: 2.91 ± 0.09 % ID/g
  Radioactivity distribution Heart: 0.77 ± 0.03 % ID/g
  Radioactivity distribution Kidney: 1.10 ± 0.10 % ID/g
  Radioactivity distribution Large intestine: 0.14 ± 0.02 % ID/g
  Radioactivity distribution Liver: 1.37 ± 0.06 % ID/g
  Radioactivity distribution Lung: 1.01 ± 0.03 % ID/g
  Radioactivity distribution Muscle (lower limbs): 0.16 ± 0.02 % ID/g
  Radioactivity distribution Remaining whole body: 0.34 ± 0.01 % ID/g
  Radioactivity distribution Small intestine: 0.79 ± 0.11 % ID/g
  Radioactivity distribution Spleen: 0.39 ± 0.03 % ID/g
  Radioactivity distribution Stomach: 0.41 ± 0.05 % ID/g
  Radioactivity distribution Testis: 0.33 ± 0.02 % ID/g
  Radioactivity distribution Thyroid gland: 1.29 ± 0.25 % ID/g
  Radioactivity distribution Whole brain: 0.11 ± 0.00 % ID/g
